Source: article PMC2263054, “Functional evolution of the vitamin D and pregnane X receptors” (BMC Evolutionary Biology, 2007)

Assays:
[1] = test system: ethoxyresorufin O-deethylase (EROD) activity (CYP1A-like activity); assay: EROD assay in zebrafish primary hepatocytes; conditions: zebrafish primary hepatocytes; DIM at concentrations of 2 μM and greater
Experimental: (§1) The cells are cultured at 26°C in ambient atmosphere.

[2] = test system: testosterone 6β-hydroxylation activity (CYP3A-like activity); assay: testosterone hydroxylation (HPLC) in zebrafish primary hepatocytes
Experimental: as §1
(§2) 100 μL of sample, calibration standard, or quality material standard were pipetted into separate microcentrifuge tubes and mixed with 100 μL of methanol. Samples were vortexed and centrifuged at 13,000 rpm for 4 min. The supernatant was then injected into the HPLC.
(§3) The flow rate was 1.2 mL/min and total run time was 25 min.

[3] = test system: testosterone 6β-hydroxylation; assay: testosterone hydroxylation (HPLC) in sea lamprey primary hepatocytes; assay type: cell-based; conditions: concentration ranges per compound
Experimental: as §2, §3

[4] = test system: 6β- and 12α-hydroxylation of testosterone; assay: testosterone hydroxylation (HPLC) in African clawed frog primary hepatocytes; assay type: cell-based, Xenopus laevis; conditions: relative to vehicle control
Experimental: Xenopus laevis primary hepatocytes were cultured by a protocol adapted from a published report. Frogs are sacrificed with MS-222, rinsed with 70% ethanol, and the liver lobes perfused via the heart, initially with 375 mL Barth (88 mM NaCl, 1 mM K2SO4, and 10 mM HEPES-NaOH, pH 7.4) containing 0.82 mM MgCl2 and 0.1 mg/mL heparin, and then with 25 mL Barth containing 2.22 mM Ca(NO3)2, 2.74 mM CaCl2, and 200 U/mL type I collagenase (Worthington Chemicals, Lakewood, NJ). Livers are minced to fine pieces in 12.5 mL Barth-collagenase solution and then incubated for 10 min at room temperature, periodically disaggregating the liver pieces with a Pasteur pipette. The liver cells are then placed on a shaking incubator for 5 min at room temperature, followed by another 10 min of periodic pipetting to complete disaggregation. Cells are then filtered through a 130 μm Nitex nylon mesh (Fisher Scientific), following by spinning at 500 g for 5 min at 4°C. The supernatant is then aspirated and diluted to 50 mL with Barth plus MgCl2 and then allowed to settle while cooled in ice for 30 min. The supernatant is removed, and the cellular pellet is resuspended and subjected to one more round of nylon mesh filtration, dilution in Barth plus MgCl2, and settling while cooled in ice. The supernatant is removed and the remaining cells are washed once with Barth plus MgCl2 and then centrifuged at 500 g for 5 min at 4°C. The cells are then resuspended in 0.6 × Coon's Modified Ham's F-12 medium (Invitrogen) supplemented with 0.1 × Barth (88 mM NaCl, 1 mM K2SO4, 10 mM HEPES), 200 U/mL penicillin G, 100 μg/mL streptomycin sulfate, 2 mM glutamine, 0.2% glucose, and 10 μg/mL bovine insulin (Calbiochem), with the final pH adjusted to 7.5. […] Cells are cultured at 20°C in ambient atmosphere.
Testosterone metabolites were identified and quantitated by HPLC. […] The supernatant was then injected into the HPLC.

EROD activity = assay: EROD assay in sea lamprey primary hepatocytes; conditions: 24–48 hr exposure
Sea lamprey VDR = target: T1, Sea lamprey VDR (Petromyzon marinus, UniProt Q7ZZY9); assay type: cell-based; conditions: for Effect on sea lamprey VDR: screening for activators, at least three concentrations of each drug
T1 sequence (Q7ZZY9 92-406): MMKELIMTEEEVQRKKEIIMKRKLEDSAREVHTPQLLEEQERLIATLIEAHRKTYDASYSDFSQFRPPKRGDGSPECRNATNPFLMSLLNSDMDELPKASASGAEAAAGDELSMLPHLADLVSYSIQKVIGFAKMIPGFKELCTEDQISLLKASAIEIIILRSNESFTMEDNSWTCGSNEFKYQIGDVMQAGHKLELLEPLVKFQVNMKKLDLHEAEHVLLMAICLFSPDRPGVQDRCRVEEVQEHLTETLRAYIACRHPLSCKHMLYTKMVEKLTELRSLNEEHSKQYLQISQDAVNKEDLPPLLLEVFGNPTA

Xenopus laevis VDR = target: T2, Xenopus laevis VDR (Xenopus laevis, UniProt O13124); assay: luciferase reporter transactivation assay in HepG2-NTCP cells, GAL4/xlVDR LBD chimera with tk-UAS-Luc; assay type: cell-based; conditions: for Effect on Xenopus laevis VDR: screening for activators, at least three concentrations of each drug
T2 sequence (O13124 90-422): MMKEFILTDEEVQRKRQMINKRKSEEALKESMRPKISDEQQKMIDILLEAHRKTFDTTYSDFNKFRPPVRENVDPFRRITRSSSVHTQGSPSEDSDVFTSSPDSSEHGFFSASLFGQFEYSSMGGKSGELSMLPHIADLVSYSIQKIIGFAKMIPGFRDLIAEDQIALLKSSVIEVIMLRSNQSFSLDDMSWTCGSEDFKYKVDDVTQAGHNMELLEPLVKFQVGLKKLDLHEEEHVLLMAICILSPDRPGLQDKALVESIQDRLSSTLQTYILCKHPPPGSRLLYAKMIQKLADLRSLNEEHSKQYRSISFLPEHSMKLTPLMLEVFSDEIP

Zebrafish VDR = target: T3, Zebrafish VDR (Danio rerio, UniProt Q9PTN2); assay: luciferase reporter transactivation assay in HepG2-NTCP cells, GAL4/zfVDR LBD chimera with tk-UAS-Luc; assay type: cell-based; conditions: for Effect on zebrafish VDR: screening for activators, at least three concentrations of each drug
T3 sequence (Q9PTN2 121-453): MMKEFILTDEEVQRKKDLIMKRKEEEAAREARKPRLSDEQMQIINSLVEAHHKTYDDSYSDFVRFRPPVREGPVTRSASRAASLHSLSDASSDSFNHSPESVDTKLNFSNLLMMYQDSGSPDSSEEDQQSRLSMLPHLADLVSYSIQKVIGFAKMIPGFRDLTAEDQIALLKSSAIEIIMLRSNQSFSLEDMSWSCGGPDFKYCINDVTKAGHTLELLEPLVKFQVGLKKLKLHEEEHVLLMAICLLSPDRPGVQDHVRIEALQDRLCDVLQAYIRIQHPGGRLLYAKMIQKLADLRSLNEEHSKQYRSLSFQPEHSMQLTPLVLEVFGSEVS

Human VDR = target: T4, Human VDR (Homo sapiens, UniProt P11473); assay: luciferase reporter transactivation assay in HepG2-NTCP cells, full-length hVDR with CYP3A4-PXRE-Luc
T4 sequence (P11473 1-427): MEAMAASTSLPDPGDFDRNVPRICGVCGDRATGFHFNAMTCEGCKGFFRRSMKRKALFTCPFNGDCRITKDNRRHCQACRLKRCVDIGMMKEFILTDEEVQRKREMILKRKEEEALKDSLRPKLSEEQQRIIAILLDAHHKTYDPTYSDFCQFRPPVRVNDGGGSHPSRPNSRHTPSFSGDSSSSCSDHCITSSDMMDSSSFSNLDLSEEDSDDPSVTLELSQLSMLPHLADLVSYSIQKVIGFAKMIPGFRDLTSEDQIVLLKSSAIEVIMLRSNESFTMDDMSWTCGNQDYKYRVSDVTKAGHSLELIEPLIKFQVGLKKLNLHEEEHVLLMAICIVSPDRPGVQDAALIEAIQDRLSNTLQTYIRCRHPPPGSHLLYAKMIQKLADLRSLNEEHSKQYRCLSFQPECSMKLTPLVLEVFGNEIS

Ciona VDR/PXR = conditions: HepG2-NTCP cells, luciferase reporter; unit not given; also cells saying No effect
Mouse VDR = target: T5, Mouse VDR (Mus musculus, UniProt P48281); assay: luciferase reporter transactivation assay in HepG2-NTCP cells, full-length mVDR with CYP3A4-PXRE-Luc
T5 sequence (P48281 1-422): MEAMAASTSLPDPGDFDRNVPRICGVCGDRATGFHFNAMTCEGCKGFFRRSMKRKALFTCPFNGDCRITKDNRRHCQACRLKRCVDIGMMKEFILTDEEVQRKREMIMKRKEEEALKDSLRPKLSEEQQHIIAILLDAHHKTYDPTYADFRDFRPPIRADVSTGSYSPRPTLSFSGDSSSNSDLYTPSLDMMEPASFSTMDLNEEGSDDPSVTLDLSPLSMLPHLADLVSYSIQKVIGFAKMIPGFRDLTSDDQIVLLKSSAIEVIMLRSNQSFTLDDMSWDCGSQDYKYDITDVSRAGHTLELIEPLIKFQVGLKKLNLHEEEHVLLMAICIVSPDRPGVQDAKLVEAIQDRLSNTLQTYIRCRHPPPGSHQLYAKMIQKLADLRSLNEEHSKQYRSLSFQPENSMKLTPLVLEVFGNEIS

[5] = HepG2-NTCP cells, luciferase reporter, unit not given, also cells saying No effect
[6] = relative to maximal reference compound (1 μM calcitriol, efficacy = 1.0)

C=C1/C(=C\C=C2/CCC[C@]3(C)[C@@H]([C@H](C)CCCC(C)(C)O)CC[C@@H]23)C[C@@H](O)C[C@@H]1O [1,25-(OH)2-Vitamin D3, 1α,25-(OH)2-vitamin D3]
effect on EROD activity [1]: found not to affect EROD activity
effect on 6β-hydroxylation of testosterone ([2]; zebrafish primary hepatocytes, calcitriol 1–500 nM): did not increase 6β-hydroxylation of testosterone
effect on testosterone 6β-hydroxylation [3]: None of these compounds produced significant increases in testosterone 6β-hydroxylation
effect on 6β- and 12α-hydroxylation of testosterone [4]: neither activity was substantially increased relative to vehicle control
effect on EROD activity (EROD activity): did not alter EROD activity

c1ccc2c(Cc3c[nH]c4ccccc34)c[nH]c2c1 [3,3'-diindoylmethane]
effect on EROD activity [1]: caused a decrease in EROD activity
Effect on sea lamprey VDR (Sea lamprey VDR): No effect
Effect on Xenopus laevis VDR (Xenopus laevis VDR): No effect
Effect on zebrafish VDR (Zebrafish VDR): No effect

CCOC(=O)c1cccc(N)c1 [3-aminoethylbenzoate]
effect on 6β- and 12α-hydroxylation of testosterone [4]: neither activity was substantially increased relative to vehicle control

CC(CCCOS(=O)(=O)O)[C@H]1CCC2C3C(C[C@H](O)[C@@]21C)[C@@]1(C)CC[C@@H](O)C[C@@H]1C[C@H]3O (stereo partly drawn) [5α-Petromyzonol 24-sulfate]
Human VDR EC50 ± SD (Human VDR; [5]): No effect
Ciona VDR/PXR EC50 ± SD (Ciona VDR/PXR): No effect
Sea lamprey VDR EC50 ± SD (Sea lamprey VDR; [5]): No effect
Xenopus VDR EC50 ± SD (Xenopus laevis VDR; [5]): No effect
effect on testosterone 6β-hydroxylation [3]: None of these compounds produced significant increases in testosterone 6β-hydroxylation
effect on EROD activity (EROD activity): did not alter EROD activity
Mouse VDR EC50 ± SD (Mouse VDR; [5]): No effect
Zebrafish VDR EC50 ± SD (Zebrafish VDR; [5]): No effect

C=C1CC[C@H](O)C/C1=C/C=C1\CCC[C@]2(C)[C@@H]([C@H](C)CCCC(C)(C)O)CC[C@@H]12 [25-Hydroxyvitamin D3]
Human VDR relative efficacy (Human VDR): 1.22
EC50 (Human VDR; read-out: Human VDR EC50 ± SD, HepG2-NTCP cells, luciferase reporter, unit M): 1.5 ± 0.2 µM
Ciona VDR/PXR EC50 ± SD (Ciona VDR/PXR): No effect
Sea lamprey VDR relative efficacy (Sea lamprey VDR): 0.63
EC50 (Sea lamprey VDR; HepG2-NTCP cells, luciferase reporter, read-out: Sea lamprey VDR EC50 ± SD): 19 ± 2.1 µM
EC50 (Xenopus laevis VDR; HepG2-NTCP cells, luciferase reporter, read-out: Xenopus VDR EC50 ± SD): 11 ± 0.8 µM
Xenopus VDR relative efficacy (Xenopus laevis VDR; [6]): 0.67
effect on testosterone 6β-hydroxylation [3]: None of these compounds produced significant increases in testosterone 6β-hydroxylation
Mouse VDR relative efficacy (Mouse VDR): 2.62
EC50 (Mouse VDR; read-out: Mouse VDR EC50 ± SD, HepG2-NTCP cells, luciferase reporter): 0.6 ± 0.1 µM
EC50 (Zebrafish VDR; HepG2-NTCP cells, luciferase reporter, read-out: Zebrafish VDR EC50 ± SD): 7.3 ± 0.8 µM
Zebrafish VDR relative efficacy (Zebrafish VDR; [6]): 0.91

C[C@@H]1C[C@H]2[C@@H]3CCC4=CC(=O)C=C[C@]4(C)[C@@]3(F)[C@@H](O)C[C@]2(C)[C@@]1(O)C(=O)CO [Dexamethasone]
effect on testosterone 6β-hydroxylation [3]: None of these compounds produced significant increases in testosterone 6β-hydroxylation
effect on 6β- and 12α-hydroxylation of testosterone [4]: neither activity was substantially increased relative to vehicle control

C[C@@]12CCC[C@H]1[C@@H]1CC[C@H]3C[C@H](O)CC[C@]3(C)[C@H]1CC2 [androstanol, 5α-androstan-3α-ol]
Effect on sea lamprey VDR (Sea lamprey VDR): No effect
Effect on Xenopus laevis VDR (Xenopus laevis VDR): No effect
EC50 ([2]; zebrafish): 20 ± 2.7 µM
maximal rate of testosterone 6β-hydroxylation ([2]; zebrafish primary hepatocytes, 48-hour exposure): 717 pmol/min/mg protein
effect on testosterone 6β-hydroxylation [3]: None of these compounds produced significant increases in testosterone 6β-hydroxylation
effect on EROD activity (EROD activity): did not alter EROD activity
Effect on zebrafish VDR (Zebrafish VDR): No effect

Pregnenolone sulfate
Effect on sea lamprey VDR (Sea lamprey VDR): No effect
Effect on Xenopus laevis VDR (Xenopus laevis VDR): No effect
effect on testosterone 6β-hydroxylation [3]: None of these compounds produced significant increases in testosterone 6β-hydroxylation
Effect on zebrafish VDR (Zebrafish VDR): No effect
